Where a name gives a salt, the structure may show the parent alone.
Assays:
NaV1.1 = NaV1.1 (Homo sapiens (Human), UniProt P35498); assay: Sodium Influx Assay (Flux), NaV1.1; type: cell-based; settings: Trex HEK293 cells, ANG2 dye; arithmetic mean
NaV1.6 = NaV1.6 (Homo sapiens (Human), UniProt Q9UQD0); assay: Sodium Influx Assay (Flux), NaV1.6; settings: read-out: Flux NaV1.6 IC50; Trex HEK293 cells, ANG2 dye; arithmetic mean
NaV1.5 = NaV1.5 (Homo sapiens (Human), UniProt Q14524); assay: Sodium Influx Assay (Flux), NaV1.5; settings: read-out: Flux NaV1.5 IC50; Trex HEK293 cells, ANG2 dye; arithmetic mean
NaV1.5, sequence (Q14524 other isoform, or with tags, fused parts or gaps): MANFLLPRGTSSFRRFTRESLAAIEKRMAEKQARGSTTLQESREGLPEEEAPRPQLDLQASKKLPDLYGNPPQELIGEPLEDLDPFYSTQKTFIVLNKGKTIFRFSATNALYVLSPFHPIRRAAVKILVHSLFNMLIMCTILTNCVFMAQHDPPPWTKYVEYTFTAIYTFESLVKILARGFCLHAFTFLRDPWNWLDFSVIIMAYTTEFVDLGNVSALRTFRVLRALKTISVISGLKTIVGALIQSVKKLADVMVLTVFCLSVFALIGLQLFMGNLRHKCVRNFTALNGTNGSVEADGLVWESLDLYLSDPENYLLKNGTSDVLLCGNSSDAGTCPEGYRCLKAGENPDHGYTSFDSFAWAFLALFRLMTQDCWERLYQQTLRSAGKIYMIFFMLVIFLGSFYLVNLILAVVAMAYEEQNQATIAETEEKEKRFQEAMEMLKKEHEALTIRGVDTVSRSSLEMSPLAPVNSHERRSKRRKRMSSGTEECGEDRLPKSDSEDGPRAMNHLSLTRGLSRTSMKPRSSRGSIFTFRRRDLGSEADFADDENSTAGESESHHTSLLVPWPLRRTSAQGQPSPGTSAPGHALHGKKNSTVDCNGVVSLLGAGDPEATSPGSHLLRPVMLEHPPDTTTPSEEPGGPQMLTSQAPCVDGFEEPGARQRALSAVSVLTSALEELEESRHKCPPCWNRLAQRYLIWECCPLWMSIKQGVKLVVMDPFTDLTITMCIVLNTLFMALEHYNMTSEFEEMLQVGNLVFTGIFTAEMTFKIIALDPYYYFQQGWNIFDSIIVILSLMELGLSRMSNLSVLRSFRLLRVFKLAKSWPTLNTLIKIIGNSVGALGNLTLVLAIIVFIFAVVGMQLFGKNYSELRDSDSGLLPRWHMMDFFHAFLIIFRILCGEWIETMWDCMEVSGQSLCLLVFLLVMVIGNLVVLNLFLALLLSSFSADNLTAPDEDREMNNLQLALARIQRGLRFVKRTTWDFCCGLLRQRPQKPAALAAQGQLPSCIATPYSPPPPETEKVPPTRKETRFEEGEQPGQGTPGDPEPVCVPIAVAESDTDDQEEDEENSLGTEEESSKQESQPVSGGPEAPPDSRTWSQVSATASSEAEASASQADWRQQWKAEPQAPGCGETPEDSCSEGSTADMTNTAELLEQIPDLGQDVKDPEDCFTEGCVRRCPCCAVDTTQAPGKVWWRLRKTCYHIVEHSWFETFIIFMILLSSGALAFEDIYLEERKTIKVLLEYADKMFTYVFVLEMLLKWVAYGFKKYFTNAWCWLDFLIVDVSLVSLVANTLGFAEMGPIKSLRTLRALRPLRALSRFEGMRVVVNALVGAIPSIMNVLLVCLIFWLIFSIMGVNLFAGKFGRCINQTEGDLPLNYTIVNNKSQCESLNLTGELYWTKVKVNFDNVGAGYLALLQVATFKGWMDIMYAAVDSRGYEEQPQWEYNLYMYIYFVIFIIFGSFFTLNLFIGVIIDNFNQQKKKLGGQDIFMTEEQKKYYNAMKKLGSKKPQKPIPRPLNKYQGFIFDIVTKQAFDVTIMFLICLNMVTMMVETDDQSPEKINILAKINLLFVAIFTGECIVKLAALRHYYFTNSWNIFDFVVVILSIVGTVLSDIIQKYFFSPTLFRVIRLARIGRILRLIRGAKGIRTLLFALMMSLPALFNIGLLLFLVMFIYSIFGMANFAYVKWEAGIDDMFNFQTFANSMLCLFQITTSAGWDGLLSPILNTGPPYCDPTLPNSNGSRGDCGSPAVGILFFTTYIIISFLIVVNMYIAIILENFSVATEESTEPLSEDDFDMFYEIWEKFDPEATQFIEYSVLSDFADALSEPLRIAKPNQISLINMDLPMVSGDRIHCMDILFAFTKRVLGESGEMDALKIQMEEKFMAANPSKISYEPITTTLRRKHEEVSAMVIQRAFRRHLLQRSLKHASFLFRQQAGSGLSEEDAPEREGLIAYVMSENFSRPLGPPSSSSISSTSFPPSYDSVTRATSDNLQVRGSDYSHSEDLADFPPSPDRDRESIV

| SMILES | IC50 (NaV1.1) [µM] | IC50 (NaV1.6) [µM] | IC50 (NaV1.5) [µM] |
| --- | --- | --- | --- |
| CN(c1cc(F)c(S(=O)(=O)Nc2cscn2)cc1Br)[C@H]1CCN(Cc2ccccc2)C1 [Example 230, (S)-4-((1-benzylpyrrolidin-3-yl)(methyl)amino)-5-bromo-2-fluoro-N-(thiazol-4-yl)benzenesulfonamide 2,2,2-trifluoroacetate] | 13.1 | 0.967 | 23 |
| C[C@H]1C[C@H](N(C)c2cc(F)c(S(=O)(=O)Nc3cscn3)cc2Cl)CN1Cc1ccccc1 [Example 231, 4-(((3S,5S)-1-benzyl-5-methylpyrrolidin-3-yl)(methyl)amino)-5-chloro-2-fluoro-N-(thiazol-4-yl)benzenesulfonamide formate] | 25.5 | 5.51 | 15.1 |
| O=S(=O)(Nc1cscn1)c1ccc(OC2CCN(Cc3cccc(C(F)F)c3)CC2)c(Cl)c1 [Example 232, 3-chloro-4-((1-(3-(difluoromethyl)benzyl)piperidin-4-yl)oxy)-N-(thiazol-4-yl)benzenesulfonamide formate] | 4.6 | 0.858 | 3.76 |
| Cc1c(NC2(C)CN(Cc3ccccc3)C2)cc(F)c(S(=O)(=O)Nc2cscn2)c1F [Example 233, 4-((1-benzyl-3-methylazetidin-3-yl)amino)-2,6-difluoro-3-methyl-N-(thiazol-4-yl)benzenesulfonamide 2,2,2-trifluoroacetate] | 6.02 | 0.375 | 27.3 |
| O=S(=O)(Nc1nccs1)c1ccc(OC2CCN(CCc3ccccc3)CC2)c(Cl)c1 [Example 234, 3-chloro-4-((1-phenethylpiperidin-4-yl)oxy)-N-(thiazol-2-yl)benzenesulfonamide] | 6.87 | 1.42 | 20.7 |
| Cc1c(N(C)[C@H]2CCN(Cc3cccc(F)c3)C2)cc(F)c(S(=O)(=O)Nc2cscn2)c1F [Example 235, (S)-2,6-difluoro-4-((1-(3-fluorobenzyl)pyrrolidin-3-yl)(methyl)amino)-3-methyl-N-(thiazol-4-yl)benzenesulfonamide formate] | 10.2 | 0.047 | 15.4 |
| Cc1c(N(C)[C@H]2CCN(Cc3ccccc3F)C2)cc(F)c(S(=O)(=O)Nc2cscn2)c1F [Example 236, (S)-2,6-difluoro-4-((1-(2-fluorobenzyl)pyrrolidin-3-yl)(methyl)amino)-3-methyl-N-(thiazol-4-yl)benzenesulfonamide formate] | 24.3 | 0.067 | > 30 |
| Cc1c(N(C)[C@H]2CCN(Cc3cccc(F)c3F)C2)cc(F)c(S(=O)(=O)Nc2cscn2)c1F [Example 237, (S)-4-((1-(2,3-difluorobenzyl)pyrrolidin-3-yl)(methyl)amino)-2,6-difluoro-3-methyl-N-(thiazol-4-yl)benzenesulfonamide formate] | 8.52 | 0.064 | 14.7 |
| Cc1cc(S(=O)(=O)Nc2cscn2)c(F)cc1OC1CCN(Cc2ccccc2)CC1 [Example 239, 4-((1-benzylpiperidin-4-yl)oxy)-2-fluoro-5-methyl-N-(thiazol-4-yl)benzenesulfonamide] | 27 | 0.708 | 16.5 |
| Cc1c(N(C)[C@H]2CCN(Cc3cc(F)ccc3F)C2)cc(F)c(S(=O)(=O)Nc2cscn2)c1F [Example 240, (S)-4-((1-(2,5-difluorobenzyl)pyrrolidin-3-yl)(methyl)amino)-2,6-difluoro-3-methyl-N-(thiazol-4-yl)benzenesulfonamide 2,2,2-trifluoroacetate] | 8.06 | 0.093 | 7.46 |
| CN(c1ccc(S(=O)(=O)Nc2nccs2)cc1Cl)C1(C)CCN(Cc2ccccc2)C1 (stereo not drawn) [Example 241, 4-((1-benzyl-3-methylpyrrolidin-3-yl)(methyl)amino)-3-chloro-N-(thiazol-2-yl)benzenesulfonamide] | 9.93 | 0.274 | 15.1 |
| CC[C@H](c1ccccc1)N1CC[C@H](N(C)c2cc(F)c(S(=O)(=O)Nc3cscn3)cc2Cl)C1 [Example 243, 5-chloro-2-fluoro-4-(methyl((S)-1-((R)-1-phenylpropyl)pyrrolidin-3-yl)amino)-N-(thiazol-4-yl)benzenesulfonamide] | 13.1 | 1.06 | 25.7 |
| CN(c1cc(F)c(S(=O)(=O)Nc2cscn2)cc1Cl)[C@H]1CCN(C2(c3ccccc3F)CCC2)C1 [Example 244, (S)-5-chloro-2-fluoro-4-((1-(1-(2-fluorophenyl)cyclobutyl)pyrrolidin-3-yl)(methyl)amino)-N-(thiazol-4-yl)benzenesulfonamide formate] | 6.94 | 1.23 | 5.08 |
| Cc1nc(CN2CC[C@H](N(C)c3cc(F)c(S(=O)(=O)Nc4cscn4)cc3C)C2)c(C)o1 [Example 245, (S)-4-((1-((2,5-dimethyloxazol-4-yl)methyl)pyrrolidin-3-yl)(methyl)amino)-2-fluoro-5-methyl-N-(thiazol-4-yl)benzenesulfonamide 2,2,2-trifluoroacetate] | > 30 | 2.12 | > 30 |
| CN(c1ccc(S(=O)(=O)Nc2cscn2)c(F)c1Cl)[C@H]1CCN([C@H]2CCc3ccccc32)C1 [Example 247, 3-chloro-4-(((S)-1-((S)-2,3-dihydro-1H-inden-1-yl)pyrrolidin-3-yl)(methyl)amino)-2-fluoro-N-(thiazol-4-yl)benzenesulfonamide 2,2,2-trifluoroacetate] | 6.87 | 0.469 | 14 |
| CC[C@@H](c1ccccc1Cl)N1CC[C@H](N(C)c2cc(F)c(S(=O)(=O)Nc3cscn3)cc2Cl)C1 [Example 248, 5-chloro-4-(((S)-1-((S)-1-(2-chlorophenyl)propyl)pyrrolidin-3-yl)(methyl)amino)-2-fluoro-N-(thiazol-4-yl)benzenesulfonamide 2,2,2-trifluoroacetate] | 5.53 | 3.31 | 7.06 |
| C[C@@H](c1ccccc1)N1CC[C@H](N(C)c2ccc(S(=O)(=O)Nc3cscn3)cc2Cl)C1 [Example 250, 3-chloro-4-(methyl((S)-1-((S)-1-phenylethyl)pyrrolidin-3-yl)amino)-N-(thiazol-4-yl)benzenesulfonamide 2,2,2-trifluoroacetate] | 5.5 | 1.42 | 6.48 |
| CN(c1ccc(S(=O)(=O)Nc2ncns2)cc1Cl)[C@H]1CCN(Cc2ccccc2Cl)C1 [Example 252, (S)-3-chloro-4-((1-(2-chlorobenzyl)pyrrolidin-3-yl)(methyl)amino)-N-(1,2,4-thiadiazol-5-yl)benzenesulfonamide 2,2,2-trifluoroacetate] | 17.1 | 0.304 | 8.08 |
| CC1(Nc2ccc(S(=O)(=O)Nc3cscn3)cc2Cl)CN(Cc2ccccc2)C1 [Example 255, 4-((1-benzyl-3-methylazetidin-3-yl)amino)-3-chloro-N-(thiazol-4-yl)benzenesulfonamide 2,2,2-trifluoroacetate] | 9.14 | 3.7 | 12.7 |
| O=S(=O)(Nc1cscn1)c1cc(Cl)c(N[C@H]2CCN(Cc3ccccc3)C2)cc1F [Example 258, (S)-4-((1-benzylpyrrolidin-3-yl)amino)-5-chloro-2-fluoro-N-(thiazol-4-yl)benzenesulfonamide formate] | 12.9 | 7.98 | 15.4 |
| O=S(=O)(Nc1cscn1)c1cc(Cl)c(N[C@@H]2CCN(Cc3ccccc3)C2)cc1F [Example 261, (R)-4-((1-benzylpyrrolidin-3-yl)amino)-5-chloro-2-fluoro-N-(thiazol-4-yl)benzenesulfonamide] | 8.29 | 6.04 | 24.6 |
| CN(c1cc(F)c(S(=O)(=O)Nc2cscn2)cc1Cl)[C@@H]1CCN(Cc2ccccc2)C1 [Example 262, (R)-4-((1-benzylpyrrolidin-3-yl)(methyl)amino)-5-chloro-2-fluoro-N-(thiazol-4-yl)benzenesulfonamide] | 25.2 | 13.3 | 28.8 |
| O=S(=O)(Nc1cscn1)c1cc(Cl)c(N[C@@H]2CN(Cc3ccccc3)CC23CC3)cc1F [Example 264, (S)-4-((5-benzyl-5-azaspiro[2.4]heptan-7-yl)amino)-5-chloro-2-fluoro-N-(thiazol-4-yl)benzenesulfonamide 2,2,2-trifluoroacetate] | 6.01 | 4.79 | 13.1 |
| CN(c1cc(F)c(S(=O)(=O)Nc2cscn2)cc1Cl)[C@@H]1CN(Cc2ccccc2)CC12CC2 [Example 265, (S)-4-((5-benzyl-5-azaspiro[2.4]heptan-7-yl)(methyl)amino)-5-chloro-2-fluoro-N-(thiazol-4-yl)benzenesulfonamide 2,2,2-trifluoroacetate] | 6.35 | 4.79 | 6.8 |
| Cc1ccc(F)c(CN2CC[C@](C)(Nc3ccc(S(=O)(=O)Nc4cscn4)cc3Cl)C2)c1 [Example 266, (S)-3-chloro-4-((1-(2-fluoro-5-methylbenzyl)-3-methylpyrrolidin-3-yl)amino)-N-(thiazol-4-yl)benzenesulfonamide formate] | 2.67 | 1.77 | 2.06 |
| O=S(=O)(Nc1cscn1)c1c(F)cc(O[C@H]2CCN(Cc3ccccc3)C2)c(Cl)c1F [Example 268, (S)-4-((1-benzylpyrrolidin-3-yl)oxy)-3-chloro-2,6-difluoro-N-(thiazol-4-yl)benzenesulfonamide hydrochloride] | > 30 | 4.92 | 28.2 |
| CN(c1cc(F)c(S(=O)(=O)Nc2cscn2)cc1C(F)F)[C@H]1CCN(Cc2ccccc2)C1 [Example 270, (S)-4-((1-benzylpyrrolidin-3-yl)(methyl)amino)-5-(difluoromethyl)-2-fluoro-N-(thiazol-4-yl)benzenesulfonamide formate] | 21.9 | 4.74 | 28.7 |
